What all share (type): biochemical, Piper nigrum
The test system of one data set is recombinant PipSyn2. Nature of the data set: in vitro enzyme assay of amide formation from CoA-ester and amine, PipSyn2. The conditions noted are these: for relative activity, piperoyl-CoA / relative activity, 3,4-methylenedioxycinnamoyl-CoA / relative activity, myristoyl-CoA / relative activity, hexanoyl-CoA: PipSyn2; for relative activity, piperoyl-CoA: CoA-ester piperoyl-CoA, 100% = 2 nkat/mg PipSyn2 with piperidine, assay as Example 3; for relative activity, piperoyl-CoA / relative activity, 3,4-methylenedioxycinnamoyl-CoA: UV quantification; for relative activity, 3,4-methylenedioxycinnamoyl-CoA: CoA-ester 3,4-methylenedioxycinnamoyl-CoA; for relative activity, 3,4-methylenedioxycinnamoyl-CoA / relative activity, myristoyl-CoA / relative activity, hexanoyl-CoA: 100% = 2 nkat/mg PipSyn2 with piperoyl-CoA and piperidine; for relative activity, myristoyl-CoA: CoA-ester myristoyl-CoA; for relative activity, myristoyl-CoA / relative activity, hexanoyl-CoA: quantification by mass detection; for relative activity, hexanoyl-CoA: CoA-ester hexanoyl-CoA. As to the method: Enzyme activity test with regard to piperine formation in case of PipSynthase 2.
(§1) A standard enzyme assay contains:
(§2) 10 μl enzyme solution in 30 mM Tris/HCl buffer pH 8.0 (10% glycerol, 1 mM DTT)
(§3) 1 μg-5 μg protein, amount determined according to Bradford
(§4) 10 μl piperidine, 100 mM (in water) 10 μl 5 mM DTT in water 10 μl piperoyl-CoA (PipCoA) 2.5 mM in 25% DMSO/75% water • All reagents (except PipCoA) were mixed in Eppendorf tubes and incubated in a standard (Eppendorf) incubator set at 30° C. Reagents were pre-equilibrated for 1 min to this temperature. • Assay start: addition of 10 μl PipCoA 2.5 mM in 25% DMSO/75% water to a final concentration of 500 μM PipCoA. • Assay stop after 5 min addition of 10 μl stop solution such as 1% formic acid/50% acetonitrile
(§5) Mix by vortex, incubate on ice for 5 minutes and centrifugation for 1 min at 20,000 g to precipitate any debris or insoluble material e.g. residual protein.
(§6) Remove 50 μl of supernatant for analysis of products (amides) by LC-MS. Injected to an RP-HPLC column are 10 μl (out of 50 μl). • Product formation is recorded via UV/PDA (photodiode array) detector and LC-MS and simultaneously. • Identification of piperine was achieved by use of a commercial standard and by LC-MS detection of calculated product masses at m/z 286 and UV-detection at 340 nm. • Quantification of product formation was achieved by a standard graph of piperine from 0.1-100 μM (commercial standard, Sigma) and recorded and calculated intensities of mass (peak area) and/or UV-peak area. • Identification and separation of piperine was according to a corresponding standard and a mass signal of m/z 286.1 in pos. mode and its corresponding absorbance at λmax-340 nm.
(§7) Quantification was performed based on a commercially available piperine standard. The peak area of the peak due to piperine in the LC trace was determined. Peaks due to possible isomerization products of piperine were neglected for the determination of enzyme activity of piperine formation. […] Before calculating enzyme activity in terms of nkat (nmole of piperine formed per second), the amount of non-enzymatically formed piperine is subtracted from the amount determined in the presence of protein.
(§8) Protein amounts were determined photometrically by the Bradford assay of combining a defined volume, preferentially 10 μl of the (partly) purified PipSyn1 and PipSyn2 enzyme and 990 μl of Bradford reagent, and calculating the resulting absorbance at λ=595 nm based on a standard curve made with a serial dilution of commercially available Bovine Serum Albumin fraction V in water.
(§9) This Example provides in Table 1 substrates which were tested for enzyme activity with both enzymes. Activity data were calculated from the UV-(PDA) area in the range of 320-370 nm. The data are supported by LC-MS measurements of corresponding m/z values recorded in positive ionization mode and based on calculated expected masses. Mass accuracy of Waters QDA-detector is +/−0.2 Dalton. Contrary to the procedure of Example 3, for the determination of the activity of the reaction of piperoyl-CoA and piperidine as substrates, the sum of all peaks in the LC trace due to species having calculated m/z values of the expected products was used for quantification of product, assuming the same ionization efficiency in positive ionization mode as in case of piperine for all molecule species.

Data set [1] has as its system PipSyn1. In words: in vitro enzyme assay of amide formation from CoA-ester and amine, PipSyn1. The conditions noted are these: 100% = 2 nkat/mg PipSyn2 with piperoyl-CoA and piperidine, UV quantification; for relative activity, 3,4-methylenedioxycinnamoyl-CoA: CoA-ester 3,4-methylenedioxycinnamoyl-CoA; for relative activity, benzoyl-CoA: CoA-ester benzoyl-CoA; for relative activity, piperoyl-CoA: CoA-ester piperoyl-CoA. On the procedure:
Standard assays are routine for a person of average skill in the art.
as §1, §2, §3, §4, §5, §6, §7, §8, §9

Data set [2] deals with PipSyn1. The description is as above. Conditions: 100% = 2 nkat/mg PipSyn2 with piperoyl-CoA and piperidine, quantification by mass detection; for relative activity, myristoyl-CoA: CoA-ester myristoyl-CoA; for relative activity, hexanoyl-CoA: CoA-ester hexanoyl-CoA.

Consider `NCCCCCCCN` [1,7-diaminoheptane], for which the “relative activity, piperoyl-CoA” value with recombinant PipSyn2 came out at 2%. In addition, in the data set on PipSyn1 [1], the “relative activity, 3,4-methylenedioxycinnamoyl-CoA” value amounted to 104%; the “relative activity, benzoyl-CoA” value is on record as 2%; the “relative activity, piperoyl-CoA” value came out at 26%.
Regarding `NCC1CCNCC1` [4-aminomethylpiperidine], in the data set on recombinant PipSyn2, the “relative activity, 3,4-methylenedioxycinnamoyl-CoA” value stood at 7% and the “relative activity, piperoyl-CoA” value stood at 36%. Besides, in the data set on PipSyn1 [1], the “relative activity, 3,4-methylenedioxycinnamoyl-CoA” value amounted to 6% and the “relative activity, piperoyl-CoA” value was 17%.
On to `NCCc1ccc(O)c(O)c1` [dopamine], for which, in the data set on PipSyn1 [1], the “relative activity, 3,4-methylenedioxycinnamoyl-CoA” value was 7% and the “relative activity, piperoyl-CoA” value turned out to be 2%.
`CC(C)CN` [isobutylamine]: in the data set on recombinant PipSyn2, the “relative activity, 3,4-methylenedioxycinnamoyl-CoA” value came out at 2%; the “relative activity, myristoyl-CoA” value came out at 15%; the “relative activity, piperoyl-CoA” value was 16%. Also, in the data set on PipSyn1 [1], the “relative activity, 3,4-methylenedioxycinnamoyl-CoA” value is recorded as 173%; the “relative activity, benzoyl-CoA” value stood at 6%; the “relative activity, piperoyl-CoA” value is 66%. For the same molecule, the “relative activity, myristoyl-CoA” value in the data set on PipSyn1 [2] came to 20%.
In the case of `C1CCNCC1` [piperidine], in the data set on recombinant PipSyn2, the “relative activity, 3,4-methylenedioxycinnamoyl-CoA” value was determined as 38%; the “relative activity, hexanoyl-CoA” value amounted to 12%; the “relative activity, myristoyl-CoA” value amounted to 10%; the “relative activity, piperoyl-CoA” value turned out to be 100%. In the data set with PipSyn1 [1], the “relative activity, 3,4-methylenedioxycinnamoyl-CoA” value amounted to 184%; the “relative activity, benzoyl-CoA” value was 7%; the “relative activity, piperoyl-CoA” value was found to be 117%. Also, in the data set on PipSyn1 [2], the “relative activity, hexanoyl-CoA” value is on record as 23% and the “relative activity, myristoyl-CoA” value came to 10%.
Regarding `C1CCNC1` [pyrrolidine], in the data set with recombinant PipSyn2, the “relative activity, 3,4-methylenedioxycinnamoyl-CoA” value is reported as 3%; the “relative activity, hexanoyl-CoA” value was found to be 60%; the “relative activity, myristoyl-CoA” value was under 1%; the “relative activity, piperoyl-CoA” value was 34%. For the same molecule, in the data set with PipSyn1 [1], the “relative activity, 3,4-methylenedioxycinnamoyl-CoA” value is recorded as 186%; the “relative activity, benzoyl-CoA” value was found to be 1%; the “relative activity, piperoyl-CoA” value is 77%. Also, in the data set with PipSyn1 [2], the “relative activity, hexanoyl-CoA” value was 300% and the “relative activity, myristoyl-CoA” value was 3%.
`COc1cc(CN)ccc1O` [vanillylamine]: the results for the “relative activity, hexanoyl-CoA” value with recombinant PipSyn2 and in the data set on PipSyn1 [2] were under 1% and 2%, respectively. Further, the “relative activity, 3,4-methylenedioxycinnamoyl-CoA” value in the data set on PipSyn1 [1] was determined as 10%. Moreover, the “relative activity, piperoyl-CoA” value with PipSyn1 [1] was determined as 2%.

B1: PipSyn2: recombinant His-tagged piperine synthase from Piper nigrum, amino acid sequence SEQ ID NO: 4, expressed in E. coli (protein, listed as Piper nigrum)
chain: MAPSSQLEFNVVRKQPELLPPAEPTPFEWKELSDIDDQDGLRLHISGFFIYPPSTMSNVGRDNVARDIRLGLSKAMVFYYPLAGRIREGPNRKLSVECTGEGIMYCEADADVRLEQFGDIGALSMPFPFMDKVMFETVDDGILGTPLMYFQSTRFICGGIVIAGCYNHAIADGLGFYMFMAAAAQLARGAASPTPLPVWQRERLLSRVPPRVTFIHHEYIHDTPKTETANPLDNEPWPLHSIFFTRVDVAALRAQLPGHLRKSATSFEIISACLWRCRTAALRFAPDELSRLIIAVNARTKFGPPLPQGYYGNSIMLPMVVSEAGKLVLSGLGYAVELVIEAKGKVTEEYVKSVADYLVLNGRPHYVVTNTYLVSDLRQLVEMSKFDWGWGKPAYVGPADVGENAISFLATLKNGEEEGVVVPIRLPESAVGRFKSEVSKMVSFGCLEDVKPNRDGYLSRM
modifications: His tag
Take B1: the “catalytic activity taken as 100%” value in the data set with recombinant PipSyn2 (recombinant PipSyn2 with piperoyl-CoA and piperidine as substrates) is 2 nkat/mg.

The record behind these values is patent US20220290111A1, “NUCLEIC ACIDS, PROTEINS AND PROCESSES FOR PRODUCING AMIDES” (Leibniz-Institut für Pflanzenbiochemie, priority 2019, published 2022).
